From patent publication US20250154120A1, “COUMARIN COMPOUNDS AND USES THEREOF” (priority 2022, published 2025)
pIC50: −log10 of the molar value. Like-named read-outs stand apart in the source and are kept apart here.

Assays:
HCT116 cells = assay: HCT116 cell proliferation inhibition in vitro (3D CellTiter-Glo, 5 days); assay type: cell-based; settings: Homo sapiens, HCT-116, 120 h, read-out: HCT116/IC50
Experimental: McCoy's 5A medium, penicillin/streptomycin antibiotics purchased from Vicente, fetal bovine serum purchased from Biosera. 3D CellTiter-Glo (cell viability chemiluminescence detection reagent) reagent purchased from Promega. HCT116 cell line purchased from Nanjing Kebai Biotechnology Co., Ltd. Envision multi-label analyzer (PerkinElmer).
HCT116 cells were seeded in ultra-low attachment 96-well U-shaped plates, with 80 μL of cell suspension per well, containing 1000 HCT116 cells. The cell plate was cultured in a carbon dioxide incubator overnight.
The compound to be tested was serially diluted 5-fold to the 9th concentration using a pipette, that is, from 2 mM to 5.12 nM, in duplicates. 78 μL of culture medium was added to a middle plate, and then 2 μL of the serially diluted compound per well was transferred to the middle plate according to the corresponding position. After mixing well, 20 μL of the mixture was transferred to each well of the cell plate. The concentration range of the compound transferred to the cell plate was 10 μM to 0.0256 nM. The cell plate was placed in a carbon dioxide incubator and cultured for 5 days. Another cell plate was prepared, and its signal value was read on the day of drug addition as the […] for data analysis.
100 μL of cell viability chemiluminescent detection reagent was added to the cell plate and the mixture was incubated at room temperature for 10 minutes to stabilize the luminescent signal. The plate was read using a multi-label analyzer.
The raw data was converted into inhibition rate using the equation (Sample−Min)/(Max−Min)*100%, and the IC50 value may be obtained by four-parameter curve fitting (obtained in the “log(inhibitor) vs. response—Variable slope” mode in GraphPad Prism). The assay results of the inhibitory activity of the compounds of the present disclosure on HCT116 cell proliferation are shown in Table 1.

NCI-H358 = assay: Subcutaneous xenograft tumor model of human non-small cell lung cancer NCI-H358 in female BALB/c Nude mice; assay type: in vivo, mouse
Experimental: In vivo pharmacodynamic study of the test drug on the subcutaneous xenograft tumor model of human non-small cell lung cancer NCI-H358 in female BALB/c Nude mice
1. Cell culture: Human lung cancer cells NCI-H358 (ECACC-95111733) were revived and cultured in vitro in monolayers in RPMI 1640 medium with 10% fetal bovine serum and 1% double antibody. The cells were cultured in a 37° C. 5% CO2 cell incubator, and passaged twice a week. When the saturation of NCI-H358 cells reached 80%-90%, the cells were harvested, counted, and inoculated.
2. Animals: BALB/c Nude mice, female, 6-8 weeks old, weighing 18-22 g
3. Tumor inoculation: 5×10^6 NCI-H358 cells were inoculated on the right side of the neck of each mouse, with an inoculation volume of 0.1 mL. The cell suspension was a mixture of PBS and Matrigel (3:1). When the average tumor volume reached 150-200 mm^3, the mice were randomly divided into groups for drug administration. The drug administration scheme and the number of assay animals in each group are shown in Table 3 below: Assay animal grouping and administration regimen
The assay index is to examine whether the tumor growth is inhibited, delayed or cured. The tumor diameter was measured with a vernier caliper twice a week. The calculation formula of tumor volume is: V=0.5 a×b^2, where a and b represent the long diameter and short diameter of the tumor respectively.
The anti-tumor efficacy of the compound was evaluated by TGI (%) or relative tumor proliferation rate T/C (%). TGI (%) reflects the tumor growth inhibition rate. Calculation of TGI (%): TGI (%)=[1−(average tumor volume of a certain treatment group at a certain measurement−average tumor volume of the treatment group at grouping)/(average tumor volume of the vehicle control group at the same measurement−average tumor volume of the vehicle control group at grouping)]×100%. Relative tumor proliferation rate T/C (%): The calculation formula is as follows: T/C %=TRTV/CRTV×100% (TRTV: RTV of the treatment group; CRTV: RTV of the negative control group). The relative tumor volume (RTV) was calculated based on the results of tumor measurement. The calculation formula is RTV=VtV0, where V0 is the average tumor volume measured at grouping (i.e. PG-D0), Vt is the average tumor volume at a certain measurement, and TRTV and CRTV are taken from the same day.
TGI (%) reflects the tumor growth inhibition rate. TGI (%)=[(1−(average tumor volume at the end of a treatment group's administration−average tumor volume at the beginning of the treatment group's administration))/(average tumor volume at the end of the vehicle control group's treatment−average tumor volume at the beginning of the vehicle control group's treatment)]×100%.

[1] = Pharmacokinetic study in CD-1 male mice after oral and intravenous administration; assay type: in vivo; settings: mouse, plasma; for AUC(0-t): read-out: Area under the plasma concentration-time curve AUC0-last
Experimental: Pharmacokinetic study of the test compound in CD-1 male mice after oral and intravenous injection
The test compound was mixed with 10% dimethyl sulfoxide/30% PEG-400/60% aqueous solution, vortexed and sonicated to prepare a 0.20 mg/mL clear solution. The clear solution was filtered through a microporous filter for later use. Male CD-1 mice aged 7 to 10 weeks were selected and intravenously injected with a candidate compound solution and a reference compound VS-6766 solution. The reference compound and the test compound were respectively mixed with 20% sulfobutyl-β-cyclodextrin/80% aqueous solution, vortexed and sonicated to prepare a 0.20 mg/mL nearly transparent solution containing fine particles, and the candidate compound solution was orally administered. Whole blood was collected for a certain period of time, and the plasma was prepared. The drug concentration was analyzed by LC-MS/MS method, and the pharmacokinetic parameters were calculated using Phoenix WinNonlin software (Pharsight, USA).

[2] = HCT116 cells, 5 days culture, cell viability chemiluminescence
[3] = 0.3 mg/kg p.o. QD, day 28 (discontinued D10-D17 and D23-D25)
[4] = 1.5 mg/kg p.o. QD, day 28 (discontinued D3-D13, changed to 0.05 after D14)

| Compound | pIC50 (HCT116 cells) | pIC50 (HCT116 cells; [2]) | Mean tumor volume (NCI-H358; [3]) [mm^3] | T/C (NCI-H358; [3]) [%] | TGI (NCI-H358; [3]) [%] | Mean tumor volume (NCI-H358; [4]) [mm^3] | T/C (NCI-H358; [4]) [%] | TGI (NCI-H358; [4]) [%] | Vd ([1]; intravenous injection, 1.04 mg/kg, read-out: Apparent volume of distribution Vdss) [L/kg] | AUC(0-t) ([1]; intravenous injection, 1.04 mg/kg) [µM·h] | clearance ([1]; intravenous injection, 1.04 mg/kg, read-out: Clearance CL) [mL/min/kg] | half-life ([1]; intravenous injection, 1.04 mg/kg, read-out: Half-life T1/2 (converted)) [h] | AUC(0-t) ([1]; oral administration, 2.16 mg/kg) [µM·h] | Cmax ([1]; oral administration, 2.16 mg/kg, read-out: Peak concentration Cmax) [µM] | Tmax ([1]; oral administration, 2.16 mg/kg, read-out: Time to peak Tmax) [h] | bioavailability ([1]; oral administration, 2.16 mg/kg, read-out: Bioavailability F) [%] |
| --- | --- | --- | --- | --- | --- | --- | --- | --- | --- | --- | --- | --- | --- | --- | --- | --- |
| CNS(=O)(=O)Nc1cccc(Cc2c(C)c3c(F)cc(OC(=O)N(C)C)cc3oc2=O)c1F [Compound 2] | 8.14 | – | – | – | – | – | – | – | – | – | – | – | – | – | – | – |
| CNS(=O)(=O)Nc1cccc(Cc2c(C)c3c(F)cc(Oc4ncccn4)cc3oc2=O)c1F [Compound 1] | – | 7.77 | – | – | – | – | – | – | – | – | – | – | – | – | – | – |
| CNS(=O)(=O)Nc1nccc(Cc2c(C)c3c(F)cc(Oc4ncccn4)cc3oc2=O)c1F [Compound 3] | – | 7.54 | 71 | 7.90 | 111.4 | 67 | 7.45 | 111.9 | 0.35 | 46.8 | 0.69 | 5.73 | 85.8 | 10.9 | 0.63 | 89.8 |
